Data as given in US20080176827A1, “New Pyridine Analogues VII 543” (ASTRAZENECA AB, priority 2007, published 2008).
pIC50: −log10 of the molar value. Where two headings read alike, the source gives them in different places.

Target: T1, P2Y12 receptor (Homo sapiens, UniProt Q9H244)
T1 construct: expressed in transfected cells; host or cells: CHO cells (membranes)
Assay: Functional inhibition of 2-Me-S-ADP induced P2Y12 signalling (35S-GTPγS binding, membranes from P2Y12 transfected CHO-cells)
Assay type: biochemical
Details: EC80 agonist, CHO-cell membranes; for IC50: value given in each example, read-out: GTPγS(IC50 μM)
Protocol: Functional inhibition of-the P2Y12 receptor can be measured by in vitro assays using cell membranes from P2Y12 transfected CHO-cells, the methodology is indicated below. […] The reaction was allowed to proceed at 30° C. for 45 min. Samples were then transferred on to GF/B filters using a cell harvester and washed with wash buffer (50 mM Tris (pH 7.4), 5 mM MgCl2, 50 mM NaCl). Filters were then covered with scintilant and counted for the amount of ^35S-GTPγS retained by the filter. Maximum activity was that determined in the presence of the agonist and minimum activity in the absence of the agonist following subtraction of the value determined for non-specific activity. The effect of compounds at various concentrations was plotted according to the equation […]))) and IC50 estimated where A is the bottom plateau of the curve i.e. the final minimum y value B is the top of the plateau of the curve i.e. the final maximum y value C is the x value at the middle of the curve. […] Y is the original known y values. […] The reaction was allowed to proceed at 30° C. for 45 min. Samples were then transferred on to GF/B filters using a cell harvester and washed with wash buffer (50 mM Tris (pH 7.4), 5 mM MgCl2, 50 mM NaCl). Filters were then covered with scintilant and counted for the amount of ^35S-GTPγS retained by the filter. Maximum activity was that determined in the presence of the agonist and minimum activity in the absence of the agonist following subtraction of the value determined for non-specific activity. The effect of compounds at various concentrations was plotted according to the equation […]))) and IC50 estimated where A is the bottom plateau of the curve i.e. the final minimum y value B is the top of the plateau of the curve i.e. the final maximum y value C is the x value at the middle of the curve. […] Y is the original known y values.

T1 sequence (Q9H244 whole entry): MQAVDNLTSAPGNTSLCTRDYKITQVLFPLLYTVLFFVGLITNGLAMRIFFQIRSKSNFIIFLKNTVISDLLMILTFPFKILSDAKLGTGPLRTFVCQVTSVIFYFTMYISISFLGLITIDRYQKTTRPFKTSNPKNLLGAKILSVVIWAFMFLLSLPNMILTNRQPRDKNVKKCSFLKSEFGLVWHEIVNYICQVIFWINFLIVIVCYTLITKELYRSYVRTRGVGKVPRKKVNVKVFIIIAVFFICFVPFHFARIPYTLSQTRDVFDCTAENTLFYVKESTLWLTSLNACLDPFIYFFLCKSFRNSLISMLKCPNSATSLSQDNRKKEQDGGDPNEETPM

Molecule | IC50 | pIC50 (read-out: IC50)
Ethyl 6-(4-{[(4-chloro-2-fluorobenzyl)sulfonyl]carbamoyl}piperidin-1-yl)-5-cyano-2-ethylnicotinate [Example 19] | 0.01 µM | –
CCOC(=O)c1cc(C#N)c(N2CCC(C(=O)NS(=O)(=O)Cc3cccc(OC)c3)CC2)nc1C [Example 8, Ethyl 5-cyano-6-(4-{[(3-methoxybenzyl)sulfonyl]carbamoyl}piperidin-1-yl)-2-methylnicotinate] | 0.074 µM | –
CCOC(=O)c1cc(C#N)c(N2CCC(C(=O)NS(=O)(=O)Cc3ccccc3)C(C)C2)nc1C (stereo not shown) [Example 5, Ethyl 6-{4-[(benzylsulfonyl)carbamoyl]-3-methylpiperidin-1-yl}-5-cyano-2-methylnicotinate] | 0.067 µM | 7.15
CCOC(=O)c1cc(C#N)c(N2CCC(C(=O)NS(=O)(=O)Cc3c(F)ccc(F)c3F)CC2)nc1C [Example 13, ethyl 5-cyano-2-methyl-6-(4-{[(2,3,6-trifluorobenzyl)sulfonyl]carbamoyl}piperidin-1-yl)nicotinate] | 0.071 µM | –
CCOC(=O)c1cc(C#N)c(N2CC(C(=O)NS(=O)(=O)Cc3ccc(F)cc3)C2)nc1CC [Example 22, Ethyl 5-cyano-2-ethyl-6-(3-{[(4-fluorobenzyl)sulfonyl]carbamoyl}azetidin-1-yl)nicotinate] | 0.041 µM | –
CCOC(=O)c1cc(C#N)c(N2CCC(C(=O)NS(=O)(=O)Cc3ccc(F)cc3F)CC2)nc1CC [Example 18, Ethyl 5-cyano-6-(4-{[(2,4-difluorobenzyl)sulfonyl]carbamoyl}piperidin-1-yl)-2-ethylnicotinate] | 0.02 µM | –
CCOC(=O)c1cc(C#N)c(N2CC(C(=O)NS(=O)(=O)Cc3ccc(F)cc3F)C2)nc1CC [Example 21, Ethyl 5-cyano-6-(3-{[(2,4-difluorobenzyl)sulfonyl]carbamoyl}azetidin-1-yl)-2-ethylnicotinate] | 0.03 µM | –
CCOC(=O)c1cc(C#N)c(N2CCC(C(=O)NS(=O)(=O)Cc3ccccc3)C(CCC(=O)O)C2)nc1C (stereo not shown) [Example 30, 3-{4-[(Benzylsulfonyl)carbamoyl]-1-[3-cyano-5-(ethoxycarbonyl)-6-methylpyridin-2-yl]piperidin-3-yl}propanoic Acid] | 0.057 µM | –
CCOC(=O)c1cc(C#N)c(N2CC(C(=O)NS(=O)(=O)Cc3ccc(Cl)cc3)C2)nc1CC [Example 23, Ethyl 6-(3-{[(4-chlorobenzyl)sulfonyl]carbamoyl}azetidin-1-yl)-5-cyano-2-ethylnicotinate] | 0.022 µM | –
CCOC(=O)c1cc(C#N)c(N2CC(C(=O)NS(=O)(=O)Cc3cc(C)ccc3F)C2)nc1C [Example 4, Ethyl 5-cyano-6-(3-{[(2-fluoro-5-methylbenzyl)sulfonyl]carbamoyl}azetidin-1-yl)-2-methylnicotinate] | 0.018 µM | –
CCOC(=O)c1cc(C#N)c(N2CC(C(=O)NS(=O)(=O)Cc3ccc(F)c(C)c3)C2)nc1CC [Example 10, Ethyl 5-cyano-2-ethyl-6-(3-{[(4-fluoro-3-methylbenzyl)sulfonyl]carbamoyl}azetidin-1-yl)nicotinate] | 0.064 µM | –
CCOC(=O)c1cc(C#N)c(N2CCC(CC(=O)NS(=O)(=O)Cc3ccccc3)C2)nc1C (stereo not shown) [Example 1, Ethyl 6-(3-{2-[(benzylsulfonyl)amino]-2-oxoethyl}pyrrolidin-1-yl)-5-cyano-2-methylnicotinate] | 0.143 µM | –
CCOC(=O)c1cc(C#N)c(N2CCC(C(=O)NS(=O)(=O)Cc3ccccc3)C(CCC(=O)OCc3ccccc3)C2)nc1C (stereo not shown) [Example 28, Ethyl 6-{3-[3-(benzyloxy)-3-oxopropyl]-4-[(benzylsulfonyl)carbamoyl]piperidin-1-yl}-5-cyano-2-methylnicotinate] | 0.442 µM | –
CCOC(=O)c1cc(C#N)c(N2CCC(C(=O)NS(=O)(=O)Cc3ccccc3)CC2)nc1NC [Example 6, Ethyl 6-{4-[(benzylsulfonyl)carbamoyl]piperidin-1-yl}-5-cyano-2-(methylamino)nicotinate] | 0.044 µM | –

Other lines, results leading:

IC50 | pIC50 (read-out: IC50) | Molecule
0.026 µM | – | CCOC(=O)c1cc(C#N)c(N2CCC(C(=O)NS(=O)(=O)Cc3ccccc3F)CC2)nc1C [Example 27, Ethyl 5-cyano-6-(4-{[(2-fluorobenzyl)sulfonyl]carbamoyl}piperidin-1-yl)-2-methylnicotinate]
0.097 µM | – | CCOC(=O)c1cc(C#N)c(N2CCC(C(=O)NS(=O)(=O)Cc3c(F)ccc(F)c3F)CC2)nc1CC [Example 17, Ethyl 5-cyano-2-ethyl-6-(4-{[(2,3,6-trifluorobenzyl)sulfonyl]carbamoyl}piperidin-1-yl)nicotinate]
0.048 µM | – | CCOC(=O)c1cc(C#N)c(N2CCC(C(=O)NS(=O)(=O)Cc3c(F)cccc3F)CC2)nc1CC [Example 15, Ethyl 5-cyano-6-(4-{[(2,6-difluorobenzyl)sulfonyl]carbamoyl}piperidin-1-yl)-2-ethylnicotinate]
0.046 µM | – | CCOC(=O)c1cc(C#N)c(N2CC(C(=O)NS(=O)(=O)Cc3c(F)cccc3F)C2)nc1CC [Example 9, Ethyl 5-cyano-6-(3-{[(2,6-difluorobenzyl)sulfonyl]carbamoyl}azetidin-1-yl)-2-ethylnicotinate]
0.035 µM | – | CCOC(=O)c1cc(C#N)c(N2CC(C(=O)NS(=O)(=O)Cc3ccc(F)cc3F)C2)nc1C [Example 20, Ethyl 5-cyano-6-(3-{[(2,4-difluorobenzyl)sulfonyl]carbamoyl}azetidin-1-yl)-2-methylnicotinate]
0.024 µM | – | Cc1nc(N2CCC(C(=O)NS(=O)(=O)Cc3ccc(F)cc3)CC2)c(C#N)cc1C(=O)OCC(F)(F)F [Example 3, 2,2,2-Trifluoroethyl 5-cyano-6-(4-{[(4-fluorobenzyl)sulfonyl]carbamoyl}piperidin-1-yl)-2-methylnicotinate]
0.211 µM | – | CCOC(=O)c1cc(C#N)c(N2CCC(C(=O)NS(=O)(=O)Cc3ccc(F)cc3Cl)CC2)nc1CC [Example 16, Ethyl 6-(4-{[(2-chloro-4-fluorobenzyl)sulfonyl]carbamoyl}piperidin-1-yl)-5-cyano-2-ethylnicotinate]
0.035 µM | – | CCOC(=O)c1cc(C#N)c(N2CCC(C(=O)NS(=O)(=O)Cc3cc(C)ccc3F)CC2)nc1C [Example 7, Ethyl 5-cyano-6-(4-{[(2-fluoro-5-methylbenzyl)sulfonyl]carbamoyl}piperidin-1-yl)-2-methylnicotinate]
0.12 µM | – | CCOC(=O)c1cc(C#N)c(N2CCC(CC(=O)NS(=O)(=O)CCc3ccccc3)C2)nc1C (stereo not shown) [Example 2, Ethyl 5-cyano-2-methyl-6-[3-(2-oxo-2-{[(2-phenylethyl)sulfonyl]amino}ethyl)pyrrolidin-1-yl]nicotinate]
0.016 µM | – | CCOC(=O)c1cc(C#N)c(N2CCC(C(=O)NS(=O)(=O)Cc3ccc(F)cc3F)CC2)nc1C [Example 14, Ethyl 5-cyano-6-(4-{[(2,4-difluorobenzyl)sulfonyl]carbamoyl}piperidin-1-yl)-2-methylnicotinate]
0.036 µM | – | CCOC(=O)c1cc(C#N)c(N2CC(C(=O)NS(=O)(=O)Cc3ccc(F)cc3Cl)C2)nc1CC [Example 11, Ethyl 6-(3-{[(2-chloro-4-fluorobenzyl)sulfonyl]carbamoyl}azetidin-1-yl)-5-cyano-2-ethylnicotinate]
0.035 µM | – | CCOC(=O)c1cc(C#N)c(N2CC(C(=O)NS(=O)(=O)Cc3ccccc3F)C2)nc1C [Example 26, Ethyl 5-cyano-6-(3-{[(2-fluorobenzyl)sulfonyl]carbamoyl}azetidin-1-yl)-2-methylnicotinate]
0.036 µM | – | CCOC(=O)c1cc(C#N)c(N2CCC(C(=O)NS(=O)(=O)Cc3ccc(F)cc3)CC2)nc1CC [Example 24, Ethyl 5-cyano-2-ethyl-6-(4-{[(4-fluorobenzyl)sulfonyl]carbamoyl}piperidin-1-yl)nicotinate]
0.382 µM | – | CCOC(=O)c1cc(C#N)c(N2CCC(C(=O)NS(=O)(=O)Cc3ccc(F)cc3F)C(CCC(=O)OCc3ccccc3)C2)nc1C (stereo not shown) [Example 29, Ethyl 6-(3-[3-(benzyloxy)-3-oxopropyl]-4-{[(2,4-difluorobenzyl)sulfonyl]carbamoyl}piperidin-1-yl)-5-cyano-2-methylnicotinate]
0.04 µM | – | CCOC(=O)c1cc(C#N)c(N2CCC(C(=O)NS(=O)(=O)Cc3ccc(Cl)cc3)CC2)nc1CC [Example 25, Ethyl 6-(4-{[(4-chlorobenzyl)sulfonyl]carbamoyl}piperidin-1-yl)-5-cyano-2-ethylnicotinate]
0.49 µM | – | CCOC(=O)c1cc(C#N)c(N2CCC(C(=O)NS(=O)(=O)Cc3cc(F)ccc3C)CC2)nc1C [Example 12, Ethyl 5-cyano-6-(4-{[(5-fluoro-2-methylbenzyl)sulfonyl]carbamoyl}piperidin-1-yl)-2-methylnicotinate]
